Data reported in ChEMBL document CHEMBL4619786, “Discovery of Novel Resorcinol Dibenzyl Ethers Targeting the Programmed Cell Death-1/Programmed Cell Death-Ligand 1 Interaction as Potential Anticancer Agents” (J Med Chem, 2020).

Assays:
Mus musculus [1] = experiment: (§1) Effect on activated cytotoxic T cell population in mouse B16/F10 cells implanted […] mouse assessed as CD8-positive cell population in spleen at 25 mg/kg, ig administered once daily via gavage for 15 days measured 24 hrs post-last dose by immunostaining based flow cytometry (reference value: 0.383 %); format: organism-based; settings: in vivo, po
Mus musculus [2] = experiment: as §1, with “CD3-positive/CD8-positive” for “CD8-positive”, “100” for “25”, “14.2” for “0.383”; format: organism-based; settings: in vivo, po
Mus musculus [3] = experiment: Effect on spleen helper T cell population in mouse B16/F10 cells implanted […] mouse assessed as CD4-positive cell population at 25 mg/kg, ig administered once daily via gavage for 15 days measured 24 hrs post-last dose by immunostaining based flow cytometry (reference value: 1.47 %); format: ADME, organism-based; settings: in vivo, po
Mus musculus [4] = experiment: (§2) Immunostimulatory activity in mouse B16/F10 cells implanted BALB/c mouse assessed as increase in activation of tumor-microenvironment mediated activated cytotoxic T cells in tumor by measuring CD3-positive/CD8-positive cell population at 25 mg/kg, ig administered once daily via gavage for 15 days measured 24 hrs post-last dose by immunostaining based flow cytometry (reference value: 4.18%); format: functional
Mus musculus [5] = experiment: as §2, with “helper” for “activated cytotoxic”, “CD3-positive” for “CD3-positive/CD8-positive”, “100” for “25”, “18.9%)” for “4.18%)”; format: functional
B16-F10 [6] = experiment: Antitumor activity against mouse B16/F10 cells implanted in BALB/c mouse assessed as tumor weight at 50 mg/kg, ig administered once daily via gavage for 15 days measured 24 hrs post-last dose (reference value: 0.84 +/- 0.32 g); format: functional
[7] = target: T1, Programmed cell death protein 1/Programmed cell death 1 ligand 1 (Homo sapiens) (UniProt Q15116+Q9NZQ7); experiment: (§3) Inhibition of human PD1/PDL1 protein-protein interaction in human PBMC-derived CD3-positive T cells co-cultured with human Hep3B cells expressing human PDL1/OS-8 assessed as increase in IFNgamma secretion measured after 72 hrs by ELISA
[8] = target: Programmed cell death protein 1/Programmed cell death 1 ligand 1 (Homo sapiens, UniProt Q9NZQ7); experiment: as §3
Sequence of Programmed cell death protein 1/Programmed cell death 1 ligand 1 (Homo sapiens, UniProt Q9NZQ7) (Q15116 whole entry): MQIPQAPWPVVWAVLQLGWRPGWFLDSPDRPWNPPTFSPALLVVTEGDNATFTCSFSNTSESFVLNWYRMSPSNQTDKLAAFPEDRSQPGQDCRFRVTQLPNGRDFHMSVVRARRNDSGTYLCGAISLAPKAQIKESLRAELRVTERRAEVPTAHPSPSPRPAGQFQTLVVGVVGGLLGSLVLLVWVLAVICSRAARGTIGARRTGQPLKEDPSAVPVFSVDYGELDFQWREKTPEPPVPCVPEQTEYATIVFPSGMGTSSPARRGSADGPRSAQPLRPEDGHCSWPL
Sequence of Programmed cell death protein 1/Programmed cell death 1 ligand 1 (Homo sapiens, UniProt Q9NZQ7) (Q9NZQ7 whole entry): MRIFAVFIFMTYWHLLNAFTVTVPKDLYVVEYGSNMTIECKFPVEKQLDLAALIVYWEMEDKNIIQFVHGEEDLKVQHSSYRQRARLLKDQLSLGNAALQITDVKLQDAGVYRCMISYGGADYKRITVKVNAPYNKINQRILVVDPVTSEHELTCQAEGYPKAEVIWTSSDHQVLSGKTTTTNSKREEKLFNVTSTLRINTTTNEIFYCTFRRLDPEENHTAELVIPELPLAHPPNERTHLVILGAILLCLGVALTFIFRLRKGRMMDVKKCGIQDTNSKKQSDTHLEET

[9] = target: T1, Programmed cell death protein 1/Programmed cell death 1 ligand 1 (Homo sapiens); experiment: Ratio of EC50 for inhibition of human PD1/PDL1 protein-protein interaction in human PBMC-derived CD3-positive T cells co-cultured with human Hep3B cells expressing human PDL1/OS-8 assessed as increase in IFNgamma secretion to IC50 for inhibition of human PD1/PDL1 protein-protein interaction
[10] = Cmax in Sprague-Dawley rat at 10 mg/kg, po by LC-MS/MS analysis; format: ADME, organism-based; parameters: dose 10 mg/kg, route oral; settings: in vivo
[11] = AUC (0 to infinity) in Sprague-Dawley rat at 10 mg/kg, po by LC-MS/MS analysis; format: ADME, organism-based; parameters: dose 10 mg/kg, time infinity, route oral; settings: in vivo
Mus musculus [12] = experiment: Effect on spleen helper T cell population in mouse B16/F10 cells implanted […] mouse assessed as CD3-positive cell population at 100 mg/kg, ig administered once daily via gavage for 15 days measured 24 hrs post-last dose by immunostaining based flow cytometry (reference value: 14.7%); format: organism-based; settings: in vivo, po
[13] = Tmax in Sprague-Dawley rat at 1 mg/kg, iv by LC-MS/MS analysis; format: ADME, organism-based; settings: in vivo
[14] = AUC (0 to infinity) in Sprague-Dawley rat at 1 mg/kg, iv by LC-MS/MS analysis; format: ADME, organism-based; parameters: dose 1 mg/kg, time infinity, route intravenous; settings: in vivo
[15] = Toxicity in mouse B16/F10 cells implanted […] mouse assessed as increase in body weight at 25 to 100 mg/kg, ig administered once daily via gavage for 15 days measured during compound dosing; format: organism-based; settings: in vivo, po, 360 h
Mus musculus [16] = experiment: Effect on activated cytotoxic T cell population in mouse B16/F10 cells implanted […] mouse assessed as spleen cell population at 100 mg/kg, ig administered once daily via gavage for 15 days measured 24 hrs post-last dose by immunostaining based flow cytometry (reference value: 57.9 %); format: organism-based; settings: in vivo, po
Mus musculus [17] = experiment: as §2, with “melanoma” for “CD3-positive/CD8-positive”, “100” for “25”, “72.8%)” for “4.18%)”; format: functional
Mus musculus [18] = experiment: as §2, with “CD8-positive” for “CD3-positive/CD8-positive”, “50” for “25”, “2.2%)” for “4.18%)”; format: functional
Mus musculus [19] = experiment: Effect on spleen helper T cell population in mouse B16/F10 cells implanted […] mouse assessed as CD3-positive/CD4-positive cell population at 50 mg/kg, ig administered once daily via gavage for 15 days measured 24 hrs post-last dose by immunostaining based flow cytometry (reference value: 27.7%); format: ADME, organism-based; settings: in vivo, po
B16-F10 [20] = experiment: Antitumor activity against mouse B16/F10 cells implanted in BALB/c mouse assessed as tumor growth inhibition at 25 mg/kg, ig administered once daily via gavage for 15 days relative to control; format: functional; settings: B16-F10, po, 360 h, read-out: TGI
[21] = Toxicity in mouse B16/F10 cells implanted […] mouse assessed as change in thymus weight at 25 to 100 mg/kg, ig administered once daily via gavage for 15 days measured 24 hrs post-last dose; format: organism-based; settings: in vivo, po
B16-F10 [22] = experiment: Antitumor activity against mouse B16/F10 cells implanted in BALB/c mouse assessed as tumor growth inhibition at 50 mg/kg, ig administered once daily via gavage for 15 days relative to control; format: functional; settings: B16-F10, po, 360 h, read-out: TGI
[23] = target: Programmed cell death protein 1/Programmed cell death 1 ligand 1 (Mus musculus, UniProt Q9EP73); experiment: Inhibition of mouse biotin-labelled C-terminal Fc-fused/Avi-tagged PD1/Fc-fused PDL1 expressed in HEK293 cells protein-protein interaction measured after 2 hrs by ELISA; format: cell-based
Sequence of Programmed cell death protein 1/Programmed cell death 1 ligand 1 (Mus musculus, UniProt Q9EP73) (Q9EP73 whole entry, the tested form may be a part): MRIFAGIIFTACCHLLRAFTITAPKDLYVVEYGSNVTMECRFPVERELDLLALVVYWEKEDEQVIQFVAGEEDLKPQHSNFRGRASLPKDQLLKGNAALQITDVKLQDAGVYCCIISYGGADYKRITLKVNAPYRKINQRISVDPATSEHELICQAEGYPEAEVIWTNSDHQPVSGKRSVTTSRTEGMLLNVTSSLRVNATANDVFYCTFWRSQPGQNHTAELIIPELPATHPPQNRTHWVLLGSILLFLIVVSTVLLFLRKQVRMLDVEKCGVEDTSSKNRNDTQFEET
Sequence of Programmed cell death protein 1/Programmed cell death 1 ligand 1 (Mus musculus, UniProt Q9EP73) (Q02242 whole entry, further chain, the tested form may be a part): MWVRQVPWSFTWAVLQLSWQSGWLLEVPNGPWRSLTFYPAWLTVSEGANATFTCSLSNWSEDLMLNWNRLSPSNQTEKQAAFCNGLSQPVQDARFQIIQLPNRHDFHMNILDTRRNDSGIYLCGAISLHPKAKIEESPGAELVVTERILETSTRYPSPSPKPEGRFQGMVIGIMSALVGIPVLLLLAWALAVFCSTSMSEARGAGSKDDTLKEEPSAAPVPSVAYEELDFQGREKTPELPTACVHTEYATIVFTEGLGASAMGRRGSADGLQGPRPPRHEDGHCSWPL

Mus musculus [24] = experiment: Effect on spleen helper T cell population in mouse B16/F10 cells implanted […] mouse assessed as CD3-positive cell population at 25 mg/kg, ig administered once daily via gavage for 15 days measured 24 hrs post-last dose by immunostaining based flow cytometry (reference value: 14.7%); format: organism-based; settings: in vivo, po
[25] = Half life in Sprague-Dawley rat at 1 mg/kg, iv by LC-MS/MS analysis; format: ADME, organism-based; settings: in vivo
B16-F10 [26] = experiment: Antitumor activity against mouse B16/F10 cells implanted in BALB/c mouse assessed as tumor weight at 100 mg/kg, ig administered once daily via gavage for 15 days measured 24 hrs post-last dose (reference value: 0.84 +/- 0.32 g); format: functional
Mus musculus [27] = experiment: as §2, with “CD3-positive” for “CD3-positive/CD8-positive”, “20.8%)” for “4.18%)”; format: functional
[28] = Toxicity in […] cells xenografted BALB/c mouse assessed as decrease in body weight at 25 mg/kg, ip administered once daily for 14 days measured daily during compound dosing; format: organism-based; settings: in vivo, 336 h
Mus musculus [29] = experiment: as §2, with “CD3-positive” for “CD3-positive/CD8-positive”, “50” for “25”, “20.8%)” for “4.18%)”; format: functional
[30] = Toxicity in mouse B16/F10 cells implanted […] mouse assessed as effect on physical activity at 25 to 100 mg/kg, ig administered once daily via gavage for 15 days measured during compound dosing; format: organism-based; settings: in vivo, po, 360 h
Mus musculus [31] = experiment: as §2, with “helper” for “activated cytotoxic”, “CD3-positive/CD4-positive” for “CD3-positive/CD8-positive”, “50” for “25”, “6.15%)” for “4.18%)”; format: functional

Cc1c(COc2cc(OCc3cccc(C#N)c3)c(CNC(C)(C)C(=O)O)cc2Cl)cccc1-c1ccccc1
Activity (Mus musculus [1]): 0.452%
Activity (Mus musculus [2]): 11.6%
Activity (Mus musculus [3]): 1.94%
Activity (Mus musculus [4]): 12.4%
Activity (Mus musculus [5]): 28%
Activity (B16-F10 [6]): 0.21 g
inhibition [7]: Dose-dependent effect
EC50 [8]: 3 µM
Ratio [9]: 240
Cmax [10]: 69.5 ng/mL
AUC(0-inf) [11]: 520 ng·h/mL
Activity (Mus musculus [12]): 12.8%
Tmax [13]: 4.98 min
AUC(0-inf) [14]: 1050 ng·h/mL
Activity [15]: Toxic
Activity (Mus musculus [16]): 62.6%
Activity (Mus musculus [17]): 44.8%
Activity (Mus musculus [18]): 5.76%
Activity (Mus musculus [19]): 28.2%
inhibition in vivo at 25 mg/kg (B16-F10 [20]): 51.1%
Activity [21]: Non-Toxic
inhibition in vivo at 50 mg/kg (B16-F10 [22]): 75%
IC50 [23]: > 1 µM
Activity (Mus musculus [24]): 13.8%
half-life [25]: 90 min
Activity (B16-F10 [26]): 0.16 g
Activity (Mus musculus [27]): 18%
Activity [28]: Non-Toxic
Activity (Mus musculus [29]): 14.5%
Activity [30]: Non-Toxic
Activity (Mus musculus [31]): 11.7%
